Measured values published in ChEMBL document CHEMBL1133041, “Synthetic conversion of ACAT inhibitor to acetylcholinesterase inhibitor” (Bioorg Med Chem Lett, 2000).

How the values were obtained:
[1] = biological target: T1, Sterol O-acyltransferase 1 (Homo sapiens, UniProt P35610); assay: Inhibitory activity against acyl-CoA:cholesterol acyltransferase (ACAT); no inhibition >1000
T1 sequence (P35610 whole entry): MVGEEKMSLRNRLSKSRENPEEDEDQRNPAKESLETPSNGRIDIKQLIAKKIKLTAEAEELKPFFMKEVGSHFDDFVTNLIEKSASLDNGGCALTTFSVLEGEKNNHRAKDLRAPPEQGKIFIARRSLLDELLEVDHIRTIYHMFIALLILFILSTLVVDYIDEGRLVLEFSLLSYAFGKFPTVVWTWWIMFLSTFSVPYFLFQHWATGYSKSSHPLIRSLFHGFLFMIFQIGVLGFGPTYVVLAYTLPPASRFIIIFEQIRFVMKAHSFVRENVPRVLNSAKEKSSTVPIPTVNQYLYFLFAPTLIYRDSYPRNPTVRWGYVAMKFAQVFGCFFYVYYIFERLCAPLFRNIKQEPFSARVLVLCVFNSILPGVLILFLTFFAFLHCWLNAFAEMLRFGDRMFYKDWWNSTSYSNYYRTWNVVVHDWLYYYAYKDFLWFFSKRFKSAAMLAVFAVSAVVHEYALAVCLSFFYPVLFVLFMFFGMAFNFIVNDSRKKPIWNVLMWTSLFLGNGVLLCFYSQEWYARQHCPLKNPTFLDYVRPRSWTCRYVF

[2] = biological target: T2, Acetylcholinesterase (Homo sapiens, UniProt P22303); assay: Inhibitory activity against Acetylcholinesterase
[3] = biological target: T2, Acetylcholinesterase; assay: Inhibitory activity against Acetylcholinesterase; no inhibition at 100 uM
[4] = biological target: T1, Sterol O-acyltransferase 1; assay: Inhibitory activity against acyl-CoA:cholesterol acyltransferase (ACAT)

T2 sequence (P22303 whole entry): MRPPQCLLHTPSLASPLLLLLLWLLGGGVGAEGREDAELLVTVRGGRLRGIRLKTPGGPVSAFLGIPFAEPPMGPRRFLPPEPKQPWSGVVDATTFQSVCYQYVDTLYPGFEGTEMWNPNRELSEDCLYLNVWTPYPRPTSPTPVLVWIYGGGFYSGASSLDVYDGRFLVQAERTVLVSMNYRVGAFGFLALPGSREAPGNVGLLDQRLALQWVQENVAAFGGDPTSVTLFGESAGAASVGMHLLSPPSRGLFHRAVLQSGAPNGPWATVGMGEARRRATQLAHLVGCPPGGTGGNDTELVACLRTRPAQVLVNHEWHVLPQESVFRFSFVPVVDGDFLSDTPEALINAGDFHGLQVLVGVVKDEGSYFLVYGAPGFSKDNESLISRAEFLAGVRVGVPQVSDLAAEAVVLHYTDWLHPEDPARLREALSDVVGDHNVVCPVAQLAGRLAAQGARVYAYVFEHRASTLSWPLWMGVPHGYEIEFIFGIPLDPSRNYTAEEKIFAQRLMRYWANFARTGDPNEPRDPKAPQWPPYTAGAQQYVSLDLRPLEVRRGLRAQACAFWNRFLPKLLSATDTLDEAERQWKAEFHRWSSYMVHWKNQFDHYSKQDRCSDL

SMILES | IC50 [2] [µM] | further results
COc1ccc(-c2cc3c(c(=O)o2)C(=O)C2[C@@]4(C)CC[C@H](O)[C@@](C)(CO)C4C[C@H](O)[C@@]2(C)O3)cc1 (stereo partly specified) | 70 | IC50 [1]: Not Active
COc1cccc(-c2cc3c(c(=O)o2)C(=O)C2[C@@]4(C)CC[C@H](O)[C@@](C)(CO)C4C[C@H](O)[C@@]2(C)O3)c1 (stereo partly specified) | > 93 | 
C[C@]12CC[C@H](O)[C@@](C)(CO)C1C[C@H](O)[C@@]1(C)Oc3cc(-c4ccncc4)oc(=O)c3C(=O)C21 (stereo partly specified) | 7.9 | IC50 [1]: No inhibition
COc1ccc(-c2cc3c(c(=O)o2)C(=O)C2[C@@]4(C)CC[C@H](O)[C@@](C)(CO)C4C[C@H](O)[C@@]2(C)O3)cc1OC (stereo partly specified) | 58 | 
C[C@]12CC[C@H](O)[C@@](C)(CO)C1C[C@H](O)[C@@]1(C)Oc3cc(-c4ccc(Cl)nc4)oc(=O)c3C(=O)C21 (stereo partly specified) | 80 | 
C[C@]12CC[C@H](O)[C@@](C)(CO)C1C[C@H](O)[C@@]1(C)Oc3cc(-c4ccccn4)oc(=O)c3C(=O)C21 (stereo partly specified) | 101 | 
CC(=O)OC[C@@]1(C)C2C[C@H](OC(C)=O)[C@@]3(C)Oc4cc(-c5cccnc5)oc(=O)c4[C@H](O)C3[C@@]2(C)CC[C@@H]1OC(C)=O (stereo partly specified) |  | IC50 [3]: No inhibition
C[C@]12CC[C@H](O)[C@@](C)(CO)C1C[C@H](O)[C@@]1(C)Oc3cc(-c4cccnc4)oc(=O)c3C(=O)C21 (stereo partly specified) | 35 | 
C[C@]12CC[C@H](O)[C@@](C)(CO)C1C[C@H](O)[C@@]1(C)Oc3cc(-c4ccccc4)oc(=O)c3C(=O)C21 (stereo partly specified) | 99 | 
COc1ccc(-c2cc3c(c(=O)o2)C[C@]2(O)[C@@]4(C)C(=O)C=CC(C)(C)[C@]4(O)CC[C@@]2(C)O3)cc1 | 0.026 | 
COc1ccc(-c2cc3c(c(=O)o2)C[C@]2(O)[C@@]4(C)C(=O)C=CC(C)(C)[C@]4(O)CC[C@@]2(C)O3)cc1OC | 0.001 | IC50 [4]: > 50 µM
COc1cc(-c2cc3c(c(=O)o2)C[C@]2(O)[C@@]4(C)C(=O)C=CC(C)(C)[C@]4(O)CC[C@@]2(C)O3)cc(OC)c1OC [TERRITREM B] | 0.008 | IC50 [4]: > 50 µM
